Assay results published in paper PMC8630742, “Citrullinated Epitopes Identified on Tumour MHC Class II by Peptide Elution Stimulate Both Regulatory and Th1 Responses and Require Careful Selection for Optimal Anti-Tumour Responses” (Frontiers in Immunology, 2021).

Columns and labels:
splenocytes (IFNγ) = experiment: Ex vivo IFNγ ELISpot assay on splenocytes of immunised mice; type: in vivo, mouse; settings: for IFNγ response at lower (10µg) immunising peptide dose / IFNγ response to immunising peptide: HLA-DP4 transgenic mice; for IFNγ response at lower (10µg) immunising peptide dose: 10µg single peptide, Figure 2F; for IFNγ response to immunising peptide: 25µg single peptide with CpG and MPLA days 1, 8, 15, splenocytes day 21, 10 µg/mL peptide, Figure 2A; for IFNγ response in presence of CD4 blocking antibody: anti-CD4 OKT4 20µg/ml, C; for avidity of the immune response: titrating quantities of peptide in IFNγ ELISpot, Figure 2E
Description: (§1) For all studies, the mice were randomised into different groups but not blinded to the investigators. Peptides were dissolved in PBS and then emulsified with CpG (ODN 1826, Invivogen) and MPLA (Invivogen) and delivered at 10 or 25µg dose unless stated otherwise. Adjuvants were used at 5µg/dose. Peptides in adjuvant were injected subcutaneously at the base of the tail. Mice were immunised on day 1, 8 and 15 and spleens were removed for analysis at day 21.
ELISpot assays were performed using murine IFNγ and IL-10 capture and detection reagents according to the manufacturer’s instructions (Mabtech). In brief, the specific cytokine antibodies were coated onto wells of 96-well Immobilin-P plates. […] (RPMI medium 1640 (GIBCO/BRL) supplemented with 10% FCS (Sigma), 2mM L-glutamine (Sigma) and sodium bicarbonate buffered with additional 20mM HEPES (Sigma) and 50 µM 2-mercaptoethanol (2ME, Thermofisher). 5x10^5/well splenocytes were added in quadruplicate wells, plates were incubated for 40 hours at 37 °C/5% CO2. Cells with culture media only were added as negative control and cells cultured with 5 µg/ml Lipopolysaccharide (LPS, Sigma) were used as a positive control. Where relevant anti-CD4 (human clone OKT4, BioXcell) or CD8 (mouse clone 2.43, BioXcell) blocking antibodies were added to splenocytes at 20µg/ml for 15 minutes prior to stimulation with peptide. After incubation, captured cytokine was detected by biotinylated cytokine specific antibody and developed using streptavidin alkaline phosphatase and chromogenic substrate. Spots were analysed and counted using an automated plate reader (Cellular Technologies Ltd). Results were represented as spots/million splenocytes.

[1] = system: B16/HHDII/cDP4 (B16cDP4) cells; experiment: Tumour therapy, B16cDP4 melanoma in HLA-DP4 transgenic mice; type: in vivo, mouse; settings: for tumour free survival: 25ug individual peptide with CpG/MPLA, n=10/group, Figure 4A; for overall survival at day 50 / tumour growth: 25ug individual peptide, compared to unimmunised control, Figure 4
Description: as §1
For the tumour therapy studies, HHDII/DP4 transgenic mice were challenged by subcutaneous injection with 5 × 105 B16/HHDII/cDP4 (B16cDP4) cells or 1 × 105 B16/HHDII/iDP4 (B16iDP4) cells subcutaneously on the flank at day 1 and then immunised on days 4, 11 and 18. Tumour growth was monitored at 3–4 days intervals and mice were humanely euthanised once tumour approached 15mm diameter.

splenocytes (IL-10) = experiment: Ex vivo IL-10 ELISpot assay on splenocytes of immunised mice; type: in vivo, mouse; settings: for IL-10 response to immunising peptide: HLA-DP4 transgenic mice, 25ug single peptide with CpG/MPLA days 1, 8, 15, day 21, Figure 3A
Description: as §1
ELISpot assays were performed using murine IFNγ and IL-10 capture and detection reagents according to the manufacturer’s instructions (Mabtech). In brief, the specific cytokine antibodies were coated onto wells of 96-well Immobilin-P plates. Synthetic peptides (Genescript) were used at 10 µg/mL and diluted in culture media (RPMI medium 1640 (GIBCO/BRL) supplemented with 10% FCS (Sigma), 2mM L-glutamine (Sigma) and sodium bicarbonate buffered with additional 20mM HEPES (Sigma) and 50 µM 2-mercaptoethanol (2ME, Thermofisher). 5x10^5/well splenocytes were added in quadruplicate wells, plates were incubated for 40 hours at 37 °C/5% CO2. Cells with culture media only were added as negative control and cells cultured with 5 µg/ml Lipopolysaccharide (LPS, Sigma) were used as a positive control. Where relevant anti-CD4 (human clone OKT4, BioXcell) or CD8 (mouse clone 2.43, BioXcell) blocking antibodies were added to splenocytes at 20µg/ml for 15 minutes prior to stimulation with peptide. After incubation, captured cytokine was detected by biotinylated cytokine specific antibody and developed using streptavidin alkaline phosphatase and chromogenic substrate. Spots were analysed and counted using an automated plate reader (Cellular Technologies Ltd). Results were represented as spots/million splenocytes.

HLA-DP4 = HLA-DP4 competition binding assay against biotinylated Hepatitis B peptide (membrane preps, ELISA); design: species or system human; settings: Figure 1D; for binding of the reference Hepatitis B peptide in presence of competitor (% maximal binding): equal quantity of non-biotinylated competitor and 10 µg biotinylated HepB 181-193, B16HHDII/cDP4 membrane preps, 4 hrs 37°C, streptavidin ELISA, anti-HLA-DP; for competition with the Hepatitis B reference peptide: equal quantity of competitor and 10 µg biotinylated HepB 181-193
Description: Binding of peptides to HLA-DP4 was assessed by extraction of membrane fractions from B16HHDII/cDP4 cells using Mem-PER™ Plus Membrane Protein Extraction Kit (Thermo Fisher-Scientific) according to manufacturer’s instructions. Membrane preps containing HLA-DP4 were incubated with 10 µg biotinylated peptide for 4hrs at 37°C. For competition assays, the membrane preps and 10 µg biotinylated Hepatitis B peptide were pre-incubated in the presence of specified concentrations of non-biotinylated peptides. Biotinylated peptide bound to HLA-DP4 was detected by capture onto streptavidin-coated ELISA plates and detected with anti-HLA-DP antibody clone B7/21 (Leinco Technologies Inc, USA) and anti-mouse IgG3 HRP antibody (Invitrogen, UK). Binding was quantified with TMB substrate and absorbance read at 405nm wavelength.
Figure 1 Citrullinated peptide combination vaccination provides poor tumour therapy in HLA-DP4 transgenic mice. HLA-DP4 transgenic mice were challenged with B16 cells constitutively expressing DP4 (A) or expressing DP4 under an IFNγ inducible promoter (B) and four days later mice were immunised with combination of 10ug each of seven eluted peptides and tumour growth and survival monitored. N=10/group. (C), HLA-DP4 transgenic mice were immunised with seven peptide combination vaccine at days 1, 8 and 15 and immune responses monitored at day 21 by IFNγ ELISpot assay. Results are representative of at least two independent experiments in which n=3. (D), Competition of equal quantity of non-biotinylated competitor peptides in the presence of 10µg biotinylated HepB 181-193 peptide. Results are representative of at least two independent experiments.

[2] = mice immunised with 25ug peptide, Figure 2B
[3] = mice immunised with 25ug peptide

Row | Substance | binding of the reference Hepatitis B peptide in presence of competitor (% maximal binding) (HLA-DP4) | IFNγ response to immunising peptide (splenocytes (IFNγ)) | tumour free survival [1] [%] | overall survival at day 50 / tumour growth [1] | IL-10 response to immunising peptide (splenocytes (IL-10)) | other results
1 | EPKSSCYNTHEK-cit-IYQSNMLN-cit-YLI [citGRI, Synthetic citrullinated peptide Glutamate receptor ionotropic 316-340] | 40-50% | strong IFNγ responses | 70 | significant overall survival | some IL-10-producing cells | IFNγ response at lower (10µg) immunising peptide dose (splenocytes (IFNγ)): failed to stimulate an immune response; IFNγ response in presence of CD4 blocking antibody (splenocytes (IFNγ); [2]): efficiently blocked; avidity of the immune response (splenocytes (IFNγ); [3]): 10^-7 M
2 | EPKSSCYNTHEKRIYQSNMLNRYLI [GRI, synthetic native peptide Glutamate receptor ionotropic 316-340] |  |  |  |  |  | IFNγ response to unmodified peptide in mice immunised with the citrullinated peptide (splenocytes (IFNγ); mice immunised with 25ug citGRI, Figure 2B): cross reactivity
3 | LEIY-cit-YTSFVPFTIPHSTTR [citCp450, Synthetic citrullinated peptide Cytochrome P450 1A2 373-392] | 40-50% | absence of any detectable IFNγ response | 20 | tumour growth similar to control | strong IL-10 response | IL-10 response in HHDII/DR1 mice (splenocytes (IL-10); HHDII/DR1 compared to HHDII/DP4 mice, Figure 3C): fail to be stimulated; IL-10 response in presence of CD4 blocking antibody (splenocytes (IL-10); mice immunised with 25ug citCp450, did not reach significance, Figure 3B): reduction in response; IL-10 response when delivered as part of the combination vaccine (splenocytes (IL-10); seven peptide combination vaccine, Figure 3D): stimulated IL-10 responses
4 | VFDWIRKERNQYGEVRV-cit-FNTYFFR [citMMP21, Synthetic citrullinated peptide Matrix metalloproteinase-21 337-360] | 40-50% | strong IFNγ responses | 90 | strong overall survival | some IL-10-producing cells | IFNγ response in HHDII/DR1 transgenic mice (splenocytes (IFNγ); HHDII/DR1 mice, Figure 2D): No responses; IFNγ response at lower (10µg) immunising peptide dose (splenocytes (IFNγ)): only the response to citMMP21 was observed; IFNγ response in presence of CD4 blocking antibody (splenocytes (IFNγ); [2]): reduced; IFNγ response in presence of CD8 blocking antibody (splenocytes (IFNγ); anti-CD8 2.43 20µg/ml, mice immunised with 25ug peptide, Figure 2C): No significant blocking; avidity of the immune response (splenocytes (IFNγ); [3]): 10^-8 M
5 | collagen [reference compound] |  |  |  |  |  | competition with the Hepatitis B reference peptide (HLA-DP4): no competition
6 | fibrinogen [reference compound] |  |  |  |  |  | competition with the Hepatitis B reference peptide (HLA-DP4): no competition

Further lines, with some results ahead:

Row | binding of the reference Hepatitis B peptide in presence of competitor (% maximal binding) (HLA-DP4) | Substance | IFNγ response to immunising peptide (splenocytes (IFNγ)) | tumour free survival [1] [%] | overall survival at day 50 / tumour growth [1] | IL-10 response to immunising peptide (splenocytes (IL-10)) | other results
7 | 30-35% | KRDVTLEAS-cit-ESSKP-cit-AVLKP-cit- [citSeThrePho, Synthetic citrullinated peptide Serine/threonine-protein phosphatase 2A 55 kDa regulatory subunit B gamma isoform 370-391] |  |  |  |  | 
8 | 30-35% | MDEIDAIGG-cit-RFSEGTSADREIQ [cit26S-10B, Synthetic citrullinated peptide 26S protease regulatory subunit 10B 246-268] |  |  |  |  | 
9 | 40-50% | ML-cit-CASGAEL-cit-QPPRDVPPDAR [cit5T4, Synthetic citrullinated peptide Trophoblast glycoprotein-like protein 40-61] |  |  |  |  | 
10 | 40-50% | NGQT-cit-EHALLAYTLGVKQLIVGVNK [citELO, Synthetic citrullinated peptide Elongation factor 1-alpha 1 130-154] |  |  |  |  | 
